The text below walks through data of patent publication US8455450B2, “Methods for obtaining a therapeutically effective amount of hematopoietic precursor cells and long term engraftment thereof” (Biokine Therapeutics Ltd., priority 2006, dated 2013).

Like-named read-outs stand apart in the source and are kept apart here.

One experiment has as its system PC3 cells. Kind of experiment: MIP3α secretion by PC3 prostate cells (ELISA). In kind it is cell-based. The text has this: (§1) A PC3 prostate cell line that overexpresses high levels of CXCR4 was generated. […] FIG. 1A presents FACS histograms of PC3 cells (left panel) and a single cell clone with stable overexpression of CXCR4, GFP and luc genes (PC3-CXCR4.5, right panel) that were stained for the control (IgG2a-PE, full histograms) and CXCR4 (IgG2a-12G5, empty histograms) antibodies.
(§2) In this example, regulation of the chemokine MIP3α (macrophage inflammatory protein 3α) was examined. […] In FIG. 1B, PC3 (left panel) and PC3-CXCR4.5 (right panel) cells were stimulated with the indicated concentrations of CXCL12 for 48 hours and MIP3α secretion was assessed by ELISA. The results represent the average of triplicates±STDEV.
(§3) The effects of the CXCR4 antagonist AMD3100 and of 4F-benzoyl-TN14003 (4FB-TN14003), hitherto known as a CXCR4 antagonist, on MIP3α secretion were further tested. […] In FIG. 10, CXCR4 signaling in PC3 (left panel) and PC3-CXCR4.5 (right panel) cells was inhibited with anti-CXCL12 antibodies (αCXCL12) and Pertussis toxin (PTX) treatments alone or in combination with CXCL12, as indicated. Secretion of MIP3α was assessed by ELISA. The results represent the average of triplicates±STDEV.

Another experiment has as its system PC3-CXCR4.5 cells. Kind of experiment: MIP3α secretion by CXCR4-overexpressing PC3-CXCR4.5 cells (ELISA). It counts as cell-based.
Excerpt: as §1, §2, §3
Spontaneous secretion of MIP3α is CXCL12 and PTX independent in these cells.
For orientation: ELISA stands for enzyme-linked immunosorbent assay.

The subject of experiment [1] is BM cells on stromal cells (14F1.1). Kind of experiment: In vitro production of progenitors and mature cells from BM cells seeded on stromal cells (14F1.1). It counts as cell-based. On the procedure: More specifically, the number of colonies was assayed by collecting the cells (10^5/plate) 4 days after treatment form the treated and control (untreated) plates, and evaluating the number of progenitor cells using a colony-forming cell assay. Burst forming units erythrocyte (BFU-E), colony forming units granulocyte-macrophage (CFU-GM), colony forming units megakaryocytes (CFU-M), and colony forming units granulocyte-erythrocyte-monocyte-macrophage (CFU-GEMM) were assayed by plating the cells in Iscove's-modified Dulbecco's Medium (IMDM) containing 1% methylcellulose, 15% FBS, 1% bovine serum albumin (BSA), 3 U/mL rh EPO, […] 2-mercaptoethanol, 2 mM L-glutamine, 50 ng/mL rmSCF, 10 ng/mL rmIL-3, […] rh Insulin, 10 ng/mL rh IL-6, and […] Human Transferrin (Methocult GF M3434; StemCell Technologies Inc.). The cultures were incubated at 37° C. in a humidified atmosphere containing 5% CO2. Seven days later, typical colonies were visually scored by morphologic criteria using a light microscope and the frequency of CFU was calculated. Staining colonies with benzidine dihydrochloride (Sigma, Israel) was used to localize hemoglobin-containing cells.

The test system of experiment [2] is hematopoietic progenitor cells (HPCs). Kind of experiment: Mobilization of hematopoietic progenitor cells to the blood, colony-forming cell assay. The following applies: 5 mg/kg s.c. 4F-benzoyl-TN14003 or AMD3100, 2 h, G-CSF 2.5 μg s.c. twice a day for 4 days, combination 18 h after last G-CSF. In kind it is in vivo, C57BL/6 mice.
Experiment [3] concerns hematopoietic stem cells (HSCs). Description: Hematopoietic stem cell assay: transplantation of mobilized blood cells into lethally irradiated mice, survival. In kind it is in vivo, C57BL/6 mice. To be noted: 2 h. How it is done: C57BL/6 mice, served as donors, were injected with 5 mg/kg of either 4F-benzoyl-TN14003 or AMD3100. 2 h later peripheral blood cells were collected following by ACK lysis and transferred into C57BL/6 recipient mice that were given a lethal dosing of irradiation (900 cGy) 24 h before i.v. injection of cells. A total cell obtained from 900 or 225 microliter of blood was transferred into single recipient mouse in a total volume of 200 μl PBS. Recipient mice transferred with cells obtained from blood of untreated mice or with normal BM cells were served as controls. Survival of mice was monitored for 4 months.
Although mobilization of HPCs may be of use for short-term repopulation in a transplantation setting, HSCs are required for long-term repopulation. To assess the effect of 4F-benzoyl-TN14003 on mobilization of murine HSCs, a transplantation model was used, in which donor C57Bl/6 mice were treated with 4F-benzoyl-TN14003 or AMD3100. After 2 h, blood was collected and cells isolated from an equal volume of blood obtained from each treated group (900 or 225 microliter in different experiments) were transferred for engraftment in lethally irradiated recipient C57Bl/6 mice. Survival of the recipient mice, indicative for long-term repopulating (LTR) activity and presence of HSCs, was monitored.

In a further experiment the test system is white-blood-cells (WBC). It counts as in vivo. The following applies: 5 mg/kg s.c. 4F-benzoyl-TN14003 or AMD3100, 2 h, G-CSF 2.5 μg s.c. twice a day for 4 days, combination 18 h after last G-CSF.
The next experiment deals with neutrophils. Kind of experiment: Chemotherapy (cyclophosphamide)-induced neutropenia model, neutrophil counts. In kind it is in vivo, C57BL/6 mice. The following applies: cyclophosphamide 150 + 100 mg/kg i.p. days 1 and 4, treatment s.c. days 4-7 (4F-benzoyl-TN14003 5 mg/kg). How it is done:
In the chemotherapy-induced neutropenia model, a protocol as previously described was followed (Zuluaga et al., 2006). Briefly, Female C57BL/6 mice were injected intraperitoneally with 150 and 100 mg/kg of Cyclophosphamide (CPM) on days 1 and 4, respectively. Following the treatment with CPM, mice were injected s.c. with either G-CSF […], 4F-benzoyl-TN14003 (5 mg/kg) or their combination on day 4, 5, 6 and 7. Blood samples were drawn from each mouse on day 0 and two hours after G-CSF/4F-benzoyl-TN14003 injections on days 4, 5, 6 and 7. Lysis of the erythrocyte population in the blood samples was done using ACK lysis buffer. The number of neutrophils was determined by FACS after staining the cells with anti-PE-Gr-1 antibody.
Neutropenia was induced in female C57BL/6 mice by administration of a total dose of 250 mg/kg cyclophosphamide (CPM) in two 0.5 mL intraperitoneal injections scheduled at day 1 (150 mg/kg) and day 4 (100 mg/kg). The CPM protocol caused 4 days of neutropenia (from day 4 to day 8). When mice were treated with the combination of G-CSF and 4F-benzoyl-TN14003, a significant number of neutrophils was detected in the blood on day 6, as compared to mice that were treated with CPM only or with G-CSF or 4F-benzoyl-TN14003 alone (FIG. 12).

Experiment [4] has as its system granulocytes (GR-1 positive cells). Description: Granulocyte (GR-1 positive) counts in blood and bone marrow in a chemotherapy model. In kind it is in vivo, mice. The following applies: CPM 250 mg/kg total i.p.; 4F-benzoyl-TN14003 5 mg/kg s.c., G-CSF 5 μg/mouse. On the procedure:
Mice received a total dose of 250 mg/kg cyclophosphamide (CPM) by two 0.25 ml intra-peritoneal injections scheduled at day 0 (150 mg/kg) and day 3 (100 mg/kg). Mice were subcutaneously treated with 0.2 ml of 4F-benzoyl-TN14003 (5 mg/kg) at the indicated time points, as detailed in FIG. 13A. Flow cytometery was used to assess the number of cells in the blood and bone marrow (BM), and distinguish between the different populations. Cells were gated according to forward scatter and side scatter to exclude dead cells and to identify granulocytes (GR-1 positive cells).
Mice received a total dose of 250 mg/kg CPM by two 0.25 ml intra-peritoneal injections scheduled at day 0 (150 mg/kg) and day 3 (100 mg/kg). Mice were subcutaneously treated with 0.2 ml of 4F-benzoyl-TN14003 (5 mg/kg) or G-CSF 5 μg/mouse or the combination of both at the indicated time points as detailed in FIG. 14A. Flow cytometery was used to assess the number of cells in the blood and bone marrow (BM) and distinguish between the different populations. Cells were gated according to forward scatter and side scatter to exclude dead cells and to determine granulocytes (GR-1 positive cells).

Take “CXCL12: chemokine, CXCR4's only natural ligand”: the MIP3α secretion entry in the experiment with PC3 cells is on record as “increased the secretion of MIP3α”; in the experiment with PC3-CXCR4.5 cells (PC3-CXCR4.5 cells, ELISA), “increased the secretion of MIP3α”. Moreover, in the experiment with PC3-CXCR4.5 cells (transfection with CXCR4-specific or control siRNA), the “CXCR4 dependence of induced MIP3α secretion” value is reported as “CXCR4 dependent”.
On to `c1cc(CN2CCCNCCNCCCNCC2)ccc1CN1CCCNCCNCCCNCC1` [AMD3100, reference compound], for which, in experiment [1] (stromal cells (14F1.1) seeded with BM cells, 4F-benzoyl-TN14003 10 microgram/ml, G-CSF 100 ng/ml, 4 days), the “production of GR-1 and Ter119 positive cells and progenitors” value was “did not demonstrate this effect”. Further, in experiment [2], the “BFU-E in blood, fold elevation of cell counts from control” value (“BFU-E in blood, fold elevation” for short) is reported as approximately 30 fold; the “CFU-GEMM in blood, fold elevation of cell counts from control” value was found to be 15.5 fold; the “Progenitors in blood, fold elevation of cell counts from control” value is recorded as 4.2 fold. Further, the “BFU-E in blood, fold elevation” value in experiment [2] (listed as AMD31000) is 35 fold. For the same molecule, the “survival of lethally irradiated recipient mice” value in experiment [3] (cells from 225 microliter of blood of donors given 5 mg/kg, day 33 post transplantation) was 37.5%. Moreover, the “survival of lethally irradiated recipient mice” value in experiment [3] (cells from 900 microliter of blood of donors given 5 mg/kg, day 11 post transplantation) is reported as 73%. Moreover, in the experiment on white-blood-cells (WBC), the “Activated macrophages, fold elevation of cell counts from control” value is 6.1 fold; the “MNC, fold elevation of cell counts from control” value is recorded as 3.4 fold; the “Neutrophils, fold elevation of cell counts from control” value came to 8 fold. In the experiment on white-blood-cells (WBC) (listed as AMD31000), the “Neutrophils, fold elevation of cell counts from control” value is listed as 8.0 fold and the “Total WBC, fold elevation of cell counts from control” value is on record as 2.9 fold.

B1: G-CSF: Granulocyte colony-stimulating factor (G-CSF) (Filgrastim Neupogen) (protein, UniProt P09919 31-207, looked up)
Granulocyte …: TPLGPASSLPQSFLLKCLEQVRKIQGDGAALQEKLVSECATYKLCHPEELVLLGHSLGIPWAPLSSCPSQALQLAGCLSQLHSGLFLYQGLLQALEGISPELGPTLDTLQLDVADFATTIWQQMEELGMAPALQPTQGAMPAFASAFQRRAGGVLVASHLQSFLEVSYRVLRHLAQP
modifications: N-terminal methionine
B1: the “differentiation and proliferation of BM cells on stromal cells (micrographs)” value in experiment [1] (representative experiment, FIG. 17E) is “differentiating and proliferating”. Also, in experiment [2], the “BFU-E in blood, fold elevation” value is recorded as 142 fold; the “CFU-GEMM in blood, fold elevation of cell counts from control” value amounted to 151 fold; the “Progenitors in blood, fold elevation of cell counts from control” value is recorded as 13.6 fold. For the same molecule, in the experiment on white-blood-cells (WBC), the “Activated macrophages, fold elevation of cell counts from control” value was found to be 1.4 fold; the “MNC, fold elevation of cell counts from control” value came to 1.4 fold; the “Total WBC, fold elevation of cell counts from control” value was determined as 1.9 fold. Further, the “number of neutrophils in blood as % of the initial number in normal (untreated) mice” value in the experiment with neutrophils (day 6) is “only a mild effect”. The “number of neutrophils in blood as % of the initial number” value in the experiment with neutrophils (day 7) is “not sufficient to elevate neutrophil counts to their normal level”. For the same molecule, in experiment [4], the “GR-1 positive cells in the blood (flow cytometry)” value is “mobilize GR-1 positive cells and reduce neutropenia”.
